Read-outs that look alike come from different tables or passages of the source.
Assays:
[1] = target: T1, t-P2Y1 (Meleagris gallopavo, UniProt P49652); test: Calcium mobilization assay, t-P2Y1 transfected 1321N1 astrocytoma cells; format: cell-based; conditions: for inhibition at 100 µM: 1321-N1, final conc of 100 μM
T1 construct: host or cells: human 1321N1 astrocytoma cells, stably transfected
Experimental: (§1) Dr. Gary A. Weisman provided human-1321N1 astrocytoma cells that had been transfected by the tP2Y1R, hP2Y2R, hP2Y4R, and rP2Y6R and untransfected 1321N1 astrocytoma cells (University of Missouri Mo., Bond Life Science Center). The DMEM Dulbecco’s Modified Eagle -Medium (Gibco) was added in flasks to cultivate the cell line. 10% of the Fetal bovine serum was also added to the media together with 500 μg/mL of Geneticin (G418) and 1% of the Pen/Strep. The cells in T-75 flask were then cultured and incubated in a CO2 incubator which was maintained at (5%) and 37°C temperature until 90% of the cells were confluent. Throughout the experiment, cells were periodically checked for the confluency and strictly watched for the microbial contamination.
(§2) The FLUOstar Galaxy (BMG LABTECH GmbH, Ortenberg, Germany) microplate reader with two injectors was used to measure the Ca^2+ fluorescence of synthetic compounds. For this assay, 1321N1 transfected cells (t-P2Y1, h-P2Y2, h-P2Y4, and r-P2Y6) were cultured in T-75 flask. When cells reached the confluency of 80%–90%, they were washed with PBS and then Trypsin was added. After trypsinization for 3 min, 20,000 cells/well were allowed to seed in a black wall and 96 well clear bottom plate which was coated with Poly-D-Lysine and allowed to incubate for 24 h in 37°C, 5% CO2 incubator. After incubation, 200 μL culture media was changed with 100 μL HBSS containing Fura-2 AM which is calcium chelating dye and allowed the plate to incubate for 45 min in dark at temp of 37°C in incubator which is maintained with carbon dioxide (5% CO2). After incubation for 45 min, synthesized molecules were added to HBSS washed cells in each well of 96 well plate and re-incubated for 30 min at 37°C. In next step, injection of the endogenous ligand such as ADP through the injector was followed by excitation and emission measurements of Fura-2 AM at 380/520 nm and 340/520. Final volume of the assay per well 200 μL. IC50 values were computed for the compounds displaying more than 50% of activity using Prism 5.0 software (Graph Pad., Inc., San Diego. California, United States) by using analysis i.e., nonlinear regression ([Kassack et al., 2002]; [Ullmann et al., 2005]).

[2] = MTT assay, HeLa; format: cell-based; conditions: human, HeLa cells; at 50 µM; triplicate; read-out: HeLa Cell Line (%cytotoxicity ±SEM)
[3] = MTT assay, non-transfected 1321N1 astrocytoma cells; format: cell-based, human; conditions: human, non-transfected 1321N1 astrocytoma cells; at 50 µM; non-transfected astrocytoma 1321N1 cells; triplicate; read-out: H-1321N1 Cell Line (%cytotoxicity ±SEM)
Experimental: A 96-well plate was used to plate 20,000 human 1321N1 astrocytoma cells and allowed for incubation for 24 h at temp of 37°C in CO2 (5%) incubator. Next to this, the prepared culture media was changed to media which was free from FBS, the test compounds were added and the incubation process was repeated. After incubation of 24 h, the serum free media from the wells was discarded, and 100 μL of the reagent i.e., MTT reagent was pipetted. Plate was then additionally incubated at 37°C for 4 h. Utilizing a microplate reader, absorbance was determined at 570 nm and 630 nm for calculation of cell viability (FLUOstarOmega Microplate Reader-BMG LABTECH GmbH, Ortenberg, Germany) ([Sauer et al., 2009]).

[4] = target: T2, h-P2Y4 (Homo sapiens, UniProt P51582); test: Calcium mobilization assay, h-P2Y4 transfected 1321N1 astrocytoma cells; format: cell-based
T2 construct: host or cells: human 1321N1 astrocytoma cells, stably transfected
Experimental: as §1, §2

[5] = MTT assay, HEK-293; format: cell-based; conditions: human, HEK-293 cells; at 50 µM; triplicate; read-out: HEK-293 Cell Line (%cytotoxicity ±SEM)
[6] = target: T3, h-P2Y2 (Homo sapiens, UniProt P41231); test: Calcium mobilization assay, h-P2Y2 transfected 1321N1 astrocytoma cells; format: cell-based; conditions: for inhibition at 100 µM: 1321-N1, final conc of 100 μM
T3 construct: host or cells: human 1321N1 astrocytoma cells, stably transfected
Experimental: as §1, §2

[7] = target: T4, r-P2Y6 (Rattus norvegicus, UniProt Q63371); test: Calcium mobilization assay, r-P2Y6 transfected 1321N1 astrocytoma cells; format: cell-based; conditions: for inhibition at 100 µM: 1321-N1, final conc of 100 μM
T4 construct: host or cells: human 1321N1 astrocytoma cells, stably transfected
Experimental: as §1, §2

[8] = Ca2+ mobilization inhibition, transfected 1321N1 cells, 100 μM ADP, read-out: IC50 ± SEM t-P2Y1
[9] = 1321-N1, final conc of 100 μM, 500 μM UTP, read-out: % Inhibition h-P2Y4
[10] = Ca2+ mobilization inhibition, transfected 1321N1 cells, 100 μM of UDP, read-out: IC50 ± SEM r-P2Y6
[11] = Ca2+ mobilization inhibition, transfected 1321N1 cells, 500 μM UTP, read-out: IC50 ± SEM h-P2Y4
[12] = Ca2+ mobilization inhibition, transfected 1321N1 cells, 500 μM ATP, read-out: IC50 ± SEM h-P2Y2

T2 sequence (P51582 whole entry): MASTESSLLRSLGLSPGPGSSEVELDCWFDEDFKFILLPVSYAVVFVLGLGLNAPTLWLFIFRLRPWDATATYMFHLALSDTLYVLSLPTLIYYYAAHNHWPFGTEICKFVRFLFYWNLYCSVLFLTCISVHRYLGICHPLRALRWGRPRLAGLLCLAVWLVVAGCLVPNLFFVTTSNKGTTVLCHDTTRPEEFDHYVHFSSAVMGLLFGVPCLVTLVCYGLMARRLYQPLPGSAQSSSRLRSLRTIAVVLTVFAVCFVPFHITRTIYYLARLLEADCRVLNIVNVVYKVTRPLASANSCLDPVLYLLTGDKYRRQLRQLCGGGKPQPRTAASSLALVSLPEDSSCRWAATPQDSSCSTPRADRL
T1 sequence (P49652 whole entry): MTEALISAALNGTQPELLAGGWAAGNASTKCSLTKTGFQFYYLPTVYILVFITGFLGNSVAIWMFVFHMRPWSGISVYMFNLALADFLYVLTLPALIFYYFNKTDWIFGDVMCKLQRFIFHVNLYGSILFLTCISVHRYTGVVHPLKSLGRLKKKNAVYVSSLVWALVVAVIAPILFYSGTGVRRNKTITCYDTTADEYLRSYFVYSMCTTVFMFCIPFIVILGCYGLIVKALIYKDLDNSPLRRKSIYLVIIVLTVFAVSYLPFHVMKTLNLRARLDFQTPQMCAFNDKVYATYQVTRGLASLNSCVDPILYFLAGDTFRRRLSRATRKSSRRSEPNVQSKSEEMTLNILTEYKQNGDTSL
T3 sequence (P41231 whole entry): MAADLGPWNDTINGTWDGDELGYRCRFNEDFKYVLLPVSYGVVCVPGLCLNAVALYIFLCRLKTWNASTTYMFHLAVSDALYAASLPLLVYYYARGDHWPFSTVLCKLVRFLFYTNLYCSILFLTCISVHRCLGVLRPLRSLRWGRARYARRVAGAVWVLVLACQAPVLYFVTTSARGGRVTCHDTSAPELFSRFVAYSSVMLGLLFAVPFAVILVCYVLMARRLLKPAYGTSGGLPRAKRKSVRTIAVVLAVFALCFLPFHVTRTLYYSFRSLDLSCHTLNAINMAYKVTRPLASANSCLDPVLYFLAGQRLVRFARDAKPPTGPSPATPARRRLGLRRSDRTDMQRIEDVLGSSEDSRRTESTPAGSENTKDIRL
T4 sequence (Q63371 whole entry): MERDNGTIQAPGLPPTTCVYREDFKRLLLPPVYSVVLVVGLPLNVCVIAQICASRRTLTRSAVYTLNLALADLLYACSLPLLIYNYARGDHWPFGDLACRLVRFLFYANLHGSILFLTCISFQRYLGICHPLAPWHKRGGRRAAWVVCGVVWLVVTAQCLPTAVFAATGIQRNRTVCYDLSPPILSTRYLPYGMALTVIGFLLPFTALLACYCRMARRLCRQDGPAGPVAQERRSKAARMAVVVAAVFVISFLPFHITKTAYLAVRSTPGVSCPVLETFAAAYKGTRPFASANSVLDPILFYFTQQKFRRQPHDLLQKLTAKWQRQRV

SMILES | IC50 [1, 8] | cytotoxicity at 24 h, 50 µM [2] | cytotoxicity at 24 h, 50 µM [3] | inhibition at 100 µM [4, 9] | cytotoxicity at 24 h, 50 µM [5] | inhibition at 100 µM ([6]; 500 μM ATP) | melting point | IC50 [7, 10] | inhibition at 100 µM ([1]; 100 μM ADP) | inhibition at 100 µM ([7]; 100 μM of UDP) | IC50 [1] | inhibition at 100 µM ([4]; 1321-N1, read-out: % Inhibition h-P2Y4) | IC50 [6] | IC50 [7] | IC50 [4, 11] | IC50 [6, 12] | decreased potency relatively to the derivative 1h ([1]; P2Y1) | IC50 [4]
Nc1nc2cc([N+](=O)[O-])ccc2n1C(=O)NS(=O)(=O)c1cc(Cl)cc(Cl)c1O [1a, 2-Amino-N-((3,5-dichloro-2-hydroxyphenyl)sulfonyl)-5-nitro-1H-benzo [d]imidazole-1-carboxamide] | 0.37 ± 0.02 µM | 22.2 ± 1.1% | 27.4 ± 0.5% | 41% | 13.3 ± 0.1% | 44% | 107 to 110 °C | 0.66 ± 0.04 µM | – | – | – | – | – | – | – | – | – | –
Cc1ccc(S(=O)(=O)NC(=O)n2c(N)nc3cc([N+](=O)[O-])ccc32)cc1 [1b, 2-Amino-5-nitro-N-tosyl-1H-benzo [d]imidazole-1-carboxamide] | – | 21.6 ± 0.2% | 17.3 ± 0.8% | 18% | 21.3 ± 0.2% | 38% | 113 to 115 °C | – | 33% | 21% | – | – | – | – | – | – | – | –
Cc1ccc([N+](=O)[O-])cc1S(=O)(=O)NC(=O)n1c(N)nc2cc([N+](=O)[O-])ccc21 [1c, 2-Amino-N-((2-methyl-5-nitrophenyl)sulfonyl)-5-nitro-1H-benzo [d]imidazole-1-carboxamide] | – | 26.4 ± 0.7% | 21.1 ± 0.6% | – | 19.5 ± 0.4% | – | 117 to 119 °C | – | – | – | 11.11 ± 0.04 µM | 42% | 6.32 ± 1.1 µM | 16.1 ± 0.59 µM | – | – | – | –
Nc1nc2ccccc2n1C(=O)NS(=O)(=O)c1cc(Cl)cc(Cl)c1O [1e, 2-Amino-N-((3,5-dichloro-2-hydroxyphenyl)sulfonyl)-1H-benzo [d]imidazole-1-carboxamide] | 0.46 ± 0.01 µM | 21.3 ± 0.6% | 39.9 ± 0.2% | – | 16.3 ± 0.2% | – | 115 to 117 °C | 0.75 ± 0.08 µM | – | – | – | – | – | – | 0.6 ± 0.01 µM | 5.5 ± 1.21 µM | – | –
Nc1nc2ccccc2n1C(=O)NS(=O)(=O)c1ccc(Cl)cc1 [1f, 2-Amino-N-((4-chlorophenyl)sulfonyl)-1H-benzo [d]imidazole-1-carboxamide] | 0.94 ± 0.01 µM | 16.4 ± 0.2% | 23.6 ± 0.8% | 47% | 21.2 ± 0.7% | – | 110 to 112 °C | 9.3 ± 1.12 µM | – | – | – | – | – | – | – | 8.41 ± 0.07 µM | about five | –
Cc1ccc([N+](=O)[O-])cc1S(=O)(=O)NC(=O)n1c(N)nc2ccccc21 [1g, 2-Amino-N-((2-methyl-5-nitrophenyl)sulfonyl)-1H-benzo [d]imidazole-1-carboxamide] | 11.2 ± 0.71 µM | 11.6 ± 1.1% | 46.2 ± 0.2% | 13% | 14.3 ± 0.3% | 33% | 183 to 184 °C | – | – | 40% | – | – | – | – | – | – | – | –
Nc1nc2cc(Cl)ccc2n1C(=O)NS(=O)(=O)c1ccc(Cl)cc1 [1i, 2-Amino-5-chloro-N-((4-chlorophenyl)sulfonyl)-1H-benzo [d]midazole-1-carboxamide] | 1.21 ± 0.07 µM | 39.3 ± 0.4% | 38.7 ± 0.8% | 34% | 36.2 ± 0.1% | – | 129 to 131 °C | – | – | 41% | – | – | – | – | – | 15.7 ± 1.48 µM | – | –
Cc1ccc([N+](=O)[O-])cc1S(=O)(=O)NC(=O)n1c(N)nc2cc(Cl)ccc21 [1j, 2-Amino-5-chloro-N-((2-methyl-5-nitrophenyl)sulfonyl)-1H-benzo [d]imidazole-1-carboxamide] | 13.4 ± 0.22 µM | 26.1 ± 0.7% | 44.3 ± 0.6% | 42% | 38.2 ± 0.4% | 32% | 144 to 146 °C | 25.4 ± 3.1 µM | – | – | – | – | – | – | – | – | – | –
Nc1nc2cc(Cl)ccc2n1C(=O)NS(=O)(=O)c1ccc([N+](=O)[O-])cc1 [1k, 2-Amino-5-chloro-N-((4-nitrophenyl)sulfonyl)-1H-benzo [d]imidazole-1-carboxamide] | 12.4 ± 1.03 µM | 21.7 ± 0.9% | 41.7 ± 0.2% | – | 27.2 ± 0.2% | – | 183 to 184 °C | 8.49 ± 1.23 µM | – | – | – | – | – | – | 16.6 ± 1.12 µM | 11.1 ± 0.94 µM | – | –
O=C(NS(=O)(=O)c1ccc(-c2ccccc2)cc1)n1c(-c2ccccc2)nc2ccccc21 [1l, N-([1.1′-biphenyl]-4-ylsulfonyl)-2-phenyl-1H-benzo [d]imidazole-1-carboxamide] | – | 28.3 ± 1.2% | 47.2 ± 0.4% | 22% | 21.3 ± 0.6% | 34% | 133 to 135 °C | – | 27% | 43% | – | – | – | – | – | – | – | –
O=C(NS(=O)(=O)c1ccccc1)n1c(-c2ccccc2)nc2ccccc21 [1m, 2-Phenyl-N-(phenylsulfonyl)-1H-benzo [d]imidazole-1-carboxamide] | – | 39.4 ± 1.3% | 37.9 ± 0.7% | 16% | 33.3 ± 0.3% | 37% | 154 to 156 °C | – | 29% | 21% | – | – | – | – | – | – | – | –
O=C(NS(=O)(=O)c1ccc(Cl)cc1)n1c(-c2ccccc2)nc2ccccc21 [1n, N-((4-chlorophenyl)sulfonyl)-2-phenyl-1H-benzo [d]imidazole-1-carboxamide] | 5.69 ± 0.23 µM | 22.4 ± 0.8% | 26.5 ± 0.4% | 19% | 38.7 ± 0.3% | 21% | 158 to 160 °C | 7.06 ± 1.47 µM | – | – | – | – | – | – | – | – | – | –
O=C(NS(=O)(=O)c1ccc([N+](=O)[O-])cc1)n1c(-c2ccccc2)nc2ccccc21 [1o, N-((4-nitrophenyl)sulfonyl)-2-phenyl-1H-benzo [d]imidazole-1-carboxamide] | – | 24.3 ± 0.4% | 24.3 ± 0.8% | 46% | 27.9 ± 0.8% | – | 162 to 164 °C | – | 46% | 32% | – | – | – | – | – | 18.2 ± 0.77 µM | – | –
COc1ccc(S(=O)(=O)NC(=O)n2c(Cl)nc3ccccc32)cc1 [1p, 2-Chloro-N-((4-methoxyphenyl)sulfonyl)-1H-benzo [d]imidazole-1-carboxamide] | 5.59 ± 0.91 µM | 20.5 ± 0.2% | 21.2 ± 0.3% | 20% | 24.2 ± 0.7% | 12% | 160 to 162 °C | 16.3 ± 0.83 µM | – | – | – | – | – | – | – | – | – | –
Nc1c(S(=O)(=O)O)cc(Nc2ccc(Nc3nc(Cl)nc(Nc4cccc(S(=O)(=O)O)c4)n3)c(S(=O)(=O)O)c2)c2c1C(=O)c1ccccc1C2=O [Reactive Blue 2, reference compound] | – | – | – | – | – | – | – | 2.8 ± 0.11 µM | – | – | – | – | 0.57 ± 0.02 µM | – | – | – | – | 8.4 ± 1.2 µM

Reference: PMC10250618, “Synthesis, structure-activity relationships and biological evaluation of benzimidazole derived sulfonylurea analogues as a new class of antagonists of P2Y1 receptor” (Frontiers in Pharmacology, 2023)
